This is an account of results in patent publication EP4644396A1 (Visionpharma (Nantong) Co., Ltd, priority 2022, dated 2024).

One assay has as its target T1, human TLR8 (Homo sapiens, UniProt Q9NR97).
T1 construct: expressed in transfected cells
T1 sequence (Q9NR97 27-1041): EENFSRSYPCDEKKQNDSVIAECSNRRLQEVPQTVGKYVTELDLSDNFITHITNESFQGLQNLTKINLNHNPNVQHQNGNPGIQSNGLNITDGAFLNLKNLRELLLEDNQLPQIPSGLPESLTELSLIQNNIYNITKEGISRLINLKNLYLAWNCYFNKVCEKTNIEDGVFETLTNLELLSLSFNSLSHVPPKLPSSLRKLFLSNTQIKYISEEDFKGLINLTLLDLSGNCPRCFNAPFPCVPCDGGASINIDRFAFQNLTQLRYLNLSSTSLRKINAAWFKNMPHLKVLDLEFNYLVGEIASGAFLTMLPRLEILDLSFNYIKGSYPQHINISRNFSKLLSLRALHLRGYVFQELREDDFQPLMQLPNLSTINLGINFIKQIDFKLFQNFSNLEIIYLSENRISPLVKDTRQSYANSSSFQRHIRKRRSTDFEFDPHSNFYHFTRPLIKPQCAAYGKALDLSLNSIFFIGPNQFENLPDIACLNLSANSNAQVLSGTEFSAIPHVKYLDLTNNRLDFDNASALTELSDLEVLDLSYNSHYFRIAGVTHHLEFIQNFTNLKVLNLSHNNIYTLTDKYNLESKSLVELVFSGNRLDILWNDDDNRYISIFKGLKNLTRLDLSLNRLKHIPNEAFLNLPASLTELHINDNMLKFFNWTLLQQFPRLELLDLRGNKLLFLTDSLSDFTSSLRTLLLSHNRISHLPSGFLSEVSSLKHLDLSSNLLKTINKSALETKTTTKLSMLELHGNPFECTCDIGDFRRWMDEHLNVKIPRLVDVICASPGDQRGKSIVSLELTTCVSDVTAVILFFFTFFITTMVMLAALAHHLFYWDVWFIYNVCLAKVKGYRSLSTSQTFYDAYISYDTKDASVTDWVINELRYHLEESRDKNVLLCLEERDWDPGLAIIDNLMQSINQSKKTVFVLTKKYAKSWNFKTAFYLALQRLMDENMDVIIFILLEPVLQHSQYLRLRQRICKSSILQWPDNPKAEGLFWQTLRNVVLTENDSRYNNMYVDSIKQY
Put plainly: HEK-Blue hTLR8 SEAP reporter gene inhibition assay. In kind it is cell-based. In short, it runs like this: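 Compounds (final 0.001–36 µM) were added 15 min before stimulation with 10 µM TLR7 agonist Gardiquimod or 10 µM TLR8 ligand for 20 h. Read-out: SEAP from NF-κB/AP-1 reporter in hTLR7 (80,000 cells/well) or hTLR8 (60,000 cells/well) HEK-Blue cells, via Quanti-Blue; IC50 derived.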

A further assay has as its target T2, human TLR7 (Homo sapiens, UniProt Q9NYK1).
T2 sequence (Q9NYK1 27-1049): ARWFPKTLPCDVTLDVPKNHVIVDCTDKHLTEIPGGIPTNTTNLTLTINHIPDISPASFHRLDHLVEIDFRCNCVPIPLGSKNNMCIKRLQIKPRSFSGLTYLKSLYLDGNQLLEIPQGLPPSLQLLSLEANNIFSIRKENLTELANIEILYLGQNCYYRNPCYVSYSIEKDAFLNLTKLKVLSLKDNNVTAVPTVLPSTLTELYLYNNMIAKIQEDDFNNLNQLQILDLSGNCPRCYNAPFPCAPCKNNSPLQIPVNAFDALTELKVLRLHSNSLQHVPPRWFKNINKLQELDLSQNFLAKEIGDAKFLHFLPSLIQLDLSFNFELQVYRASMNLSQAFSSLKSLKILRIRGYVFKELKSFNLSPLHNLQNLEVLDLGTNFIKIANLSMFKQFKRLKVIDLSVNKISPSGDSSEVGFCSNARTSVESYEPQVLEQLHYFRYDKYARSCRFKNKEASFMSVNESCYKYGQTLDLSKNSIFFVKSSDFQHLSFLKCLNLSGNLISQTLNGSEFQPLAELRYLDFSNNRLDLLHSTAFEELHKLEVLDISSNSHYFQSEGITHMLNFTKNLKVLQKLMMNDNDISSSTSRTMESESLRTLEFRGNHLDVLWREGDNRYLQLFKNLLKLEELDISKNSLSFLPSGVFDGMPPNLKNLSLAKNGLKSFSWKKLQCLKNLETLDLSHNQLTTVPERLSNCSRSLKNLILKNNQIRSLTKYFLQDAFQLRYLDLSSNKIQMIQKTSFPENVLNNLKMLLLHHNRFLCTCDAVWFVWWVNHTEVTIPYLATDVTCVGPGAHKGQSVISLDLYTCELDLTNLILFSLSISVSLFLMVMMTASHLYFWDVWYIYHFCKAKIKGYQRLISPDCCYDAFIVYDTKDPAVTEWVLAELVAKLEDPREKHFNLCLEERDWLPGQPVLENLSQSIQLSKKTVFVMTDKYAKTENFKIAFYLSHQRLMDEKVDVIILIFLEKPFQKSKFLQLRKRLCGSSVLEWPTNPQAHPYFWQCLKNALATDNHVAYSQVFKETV
Put plainly: HEK-Blue hTLR7 SEAP reporter gene inhibition assay. In kind it is cell-based. As to the method: HEK-Blue cells with stable expression of human TLR7 or TLR8 were used in the evaluation of inhibitory activity of compounds in the present invention against TLR7 or TLR8, by using its ability to induce the SEAP reporting gene under the control of the fusion of IFN-β minimum promoters into five NF-κB and ap-1 binding sites, as follows: hTLR7 HEK-Blue cells (Invivogen, 80, 000 cells per well) or hTLR8 HEK-Blue cells (60, 000 cells per well) were added to a 96-well cell culture plate. A solution of the testing compounds were added to each well, with the final concentration of tested compounds in the medium ranged from 0.001 to 36 µM and the culture was incubated for 15 minutes. M5049 was used as positive controls in the testing.
Then a TLR7 ligand (Gardiquimod, purchased from MedChemExpress, with final concentration of ligand in cell culture medium kept at 10 µM) or a TLR8 ligand (purchased from MedChemExpress with final concentration in cell culture media at 10 µM) and the culture was incubated for 20 hours. According to the manufacturer's instructions, a HEK-Blue reagent Quanti-blue (Invivogen) was used to detect the SEAP levels in cell cultures. The half […] concentration or IC50 was calculated by using GraphPad Prism. […] Table 1: Activities of examples in this invention to hTLR7/8 in HEK-Blue Cells
On the technique in general: In a reporter assay the amount or activity of a reporter protein is the signal.

Where [1] appears, read: hTLR8 HEK-Blue cells, TLR8 ligand 10 µM, 20 hours, SEAP by Quanti-blue, class symbols, read-out: HEK-Blue hTLR8 IC50.
Where [2] appears, read: hTLR7 HEK-Blue cells, TLR7 ligand Gardiquimod 10 µM, 20 hours, SEAP by Quanti-blue, class symbols, read-out: HEK-Blue hTLR7 IC50.

Where two headings read alike, the source gives them in different places. A value given as a limit tells only on which side of the number the result lay.

Take `C[C@@H]1CN(c2ccc(C#N)n3ncc(F)c23)Cc2c3c(nn21)CN(CC(N)=O)[C@@H](C)C3` [Example I-99, 2-((4R,9S)-2-(7-cyanide-3-fluoropyridox and [1,5-a]pyridox-4-base)-4,9-dimethyl-1,2,3,4,9, 10-hydropyridox [3', 4': 3, 4]pyridoz and [1, 5]pyridoxine-8 (7H)-Base) acetylamine]: the concentration for half-maximal inhibition (IC50) (commonly the concentration at which inhibition is half-maximal) was over 0.1 µM on human TLR8 (setting [1]) and under 0.05 µM at human TLR7 (setting [2]).

For `C[C@@H]1CN(c2ccc(C#N)n3ncc(F)c23)Cc2c3c(nn21)CCC(C)(N)C3` (single isomer, unassigned) [Example I-80a], the IC50 at human TLR8 (setting [1]) is over 0.1 µM; at human TLR7 (setting [2]), over 0.05 µM.

With `C[C@@H]1CN(c2ccc(C#N)n3ncc(F)c23)Cc2c3c(nn21)CN[C@H](CO)C3` [Example I-43, 3-fFuoro-4-((4R,9S)-9-(hydroxymethyl)-4-methyl-3,4,7,8,9,10-hexahydropyrido [3',4':3,4]pyrazolo[1,5-a]pyrazin-2(1H)-yl)pyrazolo[1,5-a]pyridine-7-carbonitrile], the IC50 on human TLR8 (HEK-Blue hTLR8 IC50 (µM)) was under 0.1 µM; on human TLR7 (HEK-Blue hTLR7 IC50 (µM)) it was under 0.05 µM.

Turning to `C[C@@H]1CN(C(=O)CN2Cc3nn4c(c3C[C@@H]2C)CN(c2ccc(C#N)n3ncc(F)c23)C[C@H]4C)C[C@@H](C)N1` [Example I-146, 4-((4R,9S)-8-(2-((3R,5R)-3,5-dimethylpiperazin-1-yl)-2-oxoethyl)-4,9-dimethyl-3,4,7,8,9,10-hexahydropyrido[3',4':3,4]pyrazolo[1,5-a]pyrazin-2(1H)-yl)-3-fluoropyrazolo[1,5-a]pyridine-7-carbonitrile], the IC50 was over 0.1 µM at human TLR8 (setting [1]) and under 0.05 µM on human TLR7 (setting [2]).

With `C[C@@H]1CN(c2ccc(C#N)n3ncc(F)c23)Cc2c3c(nn21)CN(CC1(N)COC1)[C@@H](C)C3` [Example I-184, 4-((4R,9S)-8-((3-aminooxetan-3-yl)methyl)-4,9-dimethyl-3,4,7,8,9,10-hexahydropyrido[3',4':3,4]pyrazolo[1,5-a]pyrazin-2(1H)-yl)-3-fluoropyrazolo[1,5-a]pyridine-7-carbonitrile], the IC50 on human TLR8 (setting [1]) is over 0.1 µM; at human TLR7 (setting [2]), over 0.05 µM.

As to `C[C@@H]1CN(c2ccc(C#N)n3ncc(F)c23)Cc2c3c(nn21)CN(CC(=O)N1CCCC1)[C@@H](C)C3` [Example I-151, 4-((4R,9S)-4,9-dimethyl-8-(2-oxo-2-(pyrrolidin-1-yl)ethyl)-3,4,7,8,9,10-hexahydropyrido[3',4':3,4]pyrazolo[1,5-a]pyrazin-2(1H)-yl)-3-fluoropyrazolo[1,5-a]pyridine-7-carbonitrile], the IC50 at human TLR8 (setting [1]) was over 0.1 µM; at human TLR7 (setting [2]) it was under 0.05 µM.

Take `C[C@@H]1CN(c2ccc(C#N)n3ncc(F)c23)Cc2c3c(nn21)CN[C@@H](C)C3` [Example I-30a]: the IC50 was under 0.1 µM on human TLR8 (setting [1]) and under 0.05 µM on human TLR7 (setting [2]).

In the case of `C[C@H]1CN(c2ccc(C#N)n3ncc(F)c23)Cc2c3c(nn21)CNCC3` [Example I-76, (S)-3-Fluoro-4-(4-methyl-3,4,7,8,9,10-hexahydropyrido[3',4':3,4]pyrazolo[1,5-a]pyrazin-2(1H)-yl)pyrazolo[1,5-a]pyridine-7-carbonitrile], the half-maximal inhibitory concentration (IC50) on human TLR8 (setting [1]) is over 0.1 µM; on human TLR7 (setting [2]) it was over 0.05 µM.

`C[C@@H]1CN(c2ccc(C#N)n3ncc(F)c23)Cc2c3c(nn21)CC(N)CC3` (single isomer, unassigned) [Example I-20b]: the IC50 on human TLR8 (setting [1]) was under 0.1 µM; at human TLR7 (setting [2]), under 0.05 µM.

`C[C@@H]1CN(c2ccc(C#N)n3ncc(F)c23)Cc2c3c(nn21)CN(CC(C)(C)C(N)=O)[C@@H](C)C3` [Example I-198, 3-((4R,9S)-2-(7-cyano-3-fluoropyrazolo[1,5-a]pyridin-4-yl)-4,9-dimethyl-1,2,3,4,9,10-hexahydropyrido[3',4':3,4]pyrazolo[1,5-a]pyrazin-8(7H)-yl)-2,2-dimethyl propanamide]: the IC50 was over 0.1 µM at human TLR8 (setting [1]) and over 0.05 µM at human TLR7 (setting [2]).

Consider `N#Cc1ccc(N2C[C@H](N)C[C@H](C(F)(F)F)C2)c2cccnc12` [Example M5049, reference compound], for which the IC50 on human TLR8 (hTLR8 HEK-Blue cells, TLR8 ligand 10 µM, 20 hours, SEAP by Quanti-blue, numeric value, read-out: HEK-Blue hTLR8 IC50) was found to be 0.15 µM; at human TLR7 (hTLR7 HEK-Blue cells, TLR7 ligand Gardiquimod 10 µM, 20 hours, SEAP by Quanti-blue, numeric value, read-out: HEK-Blue hTLR7 IC50) it was 0.064 µM.

“N-(tert-butyl)-2-((4R,9S)-2-(7-cyano-3-fluoropyrazolo[1,5-a]pyridin-4-yl)-4,9-dimethyl-1,2,3,4,9,10-hexahydropyrido[3',4':3,4]pyrazolo[1,5-a]pyrazin-8(7H)-yl)acetamide [Example I-154]”: the IC50 at human TLR8 (setting [1]) was over 0.1 µM; on human TLR7 (setting [2]), over 0.05 µM.

Take “4-((4R,9S)-4,9-dimethyl-8-(2-(4-methylpiperazin-1-yl)-2-oxoethyl)-3,4,7,8,9,10-hexahydropyrido[3',4':3,4]pyrazolo[1,5-a]pyrazin-2(1H)-yl)-3-fluoropyrazolo[1,5-a]pyridine-7-carbonitrile [Example I-128]”: the concentration for half-maximal inhibition (IC50) at human TLR8 (setting [1]) is under 0.1 µM; on human TLR7 (setting [2]), under 0.05 µM.

With `C[C@@H]1CN(c2ccc(C#N)n3ncc(F)c23)Cc2c3c(nn21)CN(CC(C)(CO)CO)[C@@H](C)C3` [Example I-225, 3-Fluoro-4-((4R,9S)-8-(3-hydroxy-2-(hydroxymethyl)-2-methylpropyl)-4,9-dimethyl-3,4,7,8,9,10-hexahydropyrido[3',4':3,4]pyrazolo[1,5-a]pyrazin-2(1H)-yl)pyrazolo[1,5-a]pyridine-7-carbonitrile], the IC50 on human TLR8 (read-out: HEK-Blue hTLR8 IC50) was over 0.1 µM; at human TLR7 (read-out: HEK-Blue hTLR7 IC50), over 0.05 µM.
